Legend:
[1] = test system: binding site 2 of the sodium channel; assay: BTX binding, sodium channel; conditions: rat cerebral cortex synaptosomes; for BTX Binding at 10 μM: percentage inhibition, [3H]-batrachotoxin A20 α-benzoate 10 nM
Protocol: Binding Investigations in the Sodium Channel
Binding Site 2 (BTX Binding)
The binding site 2 of the sodium channel is the so-called batrachotoxin (BTX) binding site. [^3H]-batrachlotoxin A20 α-benzoate (10 nM in the assay) was used as ligand. These ion channel particles (synaptosomes) were concentrated from rat cerebral cortex according to the procedure of Gray and Whittaker (E. G. Gray and V. P. Whittaker (1962) J. Anat. 76, 79-88). The radioactivity that is measured in the presence of veratridine (0.3 mM in the assay) is defined as non-specific binding. The material was incubated at 37° C. for 120 minutes. The assay conditions are carried out according to the protocol published by Pauwels, Leysen and Laduron (P. J. Pauwels, J. E. Leysen and P. M. Laduron (1986) Eur. J. Pharmacol. 124, 291-298).
(N=3, i.e. mean values±SEM from 3 independent series of experiments that were carried out in the form of triple parallel experiments).
(§1) For this purpose IC50 values are obtained, which can be converted to inhibitor constants (Ki) according to the “Cheng-Prusoff equation” (Y. C. Clieng and W. H. Prusoff (1973) Biochem. Pharmacol. 22, 3099-3108). The IC50 values were obtained by means of the computer program “Figure P” (version 6.0, Biosoft, Cambridge, England). Km values were calculated according to Lineweaver and Burk (H. Lineweaver and D. Burk (1934) J. Am. Chem. Soc. 56, 658-666). The “Ligand” computer program (version 4, Biosoft, England) was used to obtain Ken values.

[2] = test system: phenylquinone-induced writhing reaction; assay: phenylquinone-induced writhing test in mice; assay type: in vivo; conditions: male NMRI mice, phenylquinone i.p. 10 minutes later; for inhibition in vivo at 10 mg/kg: Mus musculus, iv, 10 min, 10 mg/kg intravenously
Protocol: Analgesic Effect in the Writhing Test in Mice
The analgesic effect was investigated in the phenylquinone-induced writhing test in mice (as modified by I. C. Hendershot and J. Forsaith (1959) J. Pharmacol. Exp. Ther. 125, 237-240). Male NMRI mice weighing 25 to 30 g were used for the test. Groups of 10 animals each received by intraperitoineal application, for each substance dose, 0.3 ml/mouse of a 0.02% aqueous solution of phenylquinone (phenylbenzoquinone, Sigma Company, Deisenhofen; solution prepared with addition of 5% of ethanol and kept in a water bath at 45° C.) 10 minutes after intravenous administration of the test substances. The animals were placed individually in observation cages. The number of pain-induced stretching movements (so-called writhing reactions=straightening of the body together with stretching of the rear extremities) was measured by means of a push-button counter 5 to 20 minutes after administration of the phenylquinone. Animals that had received only physiological saline solution served as controls. All substances were tested in the standard dose of 10 mg/kg. The percentage inhibition (% inhibition) of the writhing reaction produced by a substance was calculated according to the following formula: [formula]

[3] = test system: benzothiazepine binding site of the L-type calcium channel; assay: Diltiazem binding, L calcium channel; parameters: species or system rat; conditions: for Diltiazem Binding at 10 μM: percentage inhibition, [3H]-cis-(+)-diltiazem 5 nM, rat cerebral cortex membranes
Protocol: Binding Investigations in the L Calcium Channel
Benzothiazepine Binding Site (Diltiazem Binding)
The biological membrane material was isolated from the rat cerebral cortex. [^3H]-cis-(+)-diltiazem (5 nM in the assay) was used as ligand. The material was incubated for 20 minutes at 25° C. The radioactivity that is measured in the presence of (±)-diltiazem (10^−6 M in the assay) is defined as non-specific binding. After completion of incubation the non-bound fraction of the radioactive ligand is separated by means of a filtration process using Whatman Glasfiber GF/B membranes. The membranes are washed and the radioactivity is then measured using a β-counter. The method is based on the details published by Schoemaker and Langer (H. Schoemaker and S. Z. Langer (1985) Eur. J. Pharmacol. 111, 273-277).
as §1

[4] = target: T1, NA transporter (Rattus norvegicus, UniProt Q63380); assay: synaptosomal noradrenaline uptake inhibition (NA uptake inhibition); assay type: biochemical; conditions: for NA Uptake Inhibition at 1 μM: 1 μM in the assay, synaptosomes from rat hypothalamus; for inhibition at 1 µM: read-out: NA Uptake Inhibition at 1 μM, 1 μM in the assay, synaptosomes from rat hypothalamus
T1 construct: synaptosomes are isolated fresh from rat brains; from tissue; host or cells: rat hypothalamus synaptosomes (P2 fraction)
Protocol: In order to carry out these in vitro studies, synaptosomes are isolated fresh from rat brains. In each case a so-called “P2” fraction is used, which is prepared according to the protocol of Gray and Whittaker (E. G. Gray and V. P. Whittaker (1962) J. Anat. 76, 79-88).
(in each case N=4, i.e. mean values±SEM from 4 independent series of experiments that were carried out in the form of triple parallel experiments).
as §1

T1 sequence (Q63380 1-617): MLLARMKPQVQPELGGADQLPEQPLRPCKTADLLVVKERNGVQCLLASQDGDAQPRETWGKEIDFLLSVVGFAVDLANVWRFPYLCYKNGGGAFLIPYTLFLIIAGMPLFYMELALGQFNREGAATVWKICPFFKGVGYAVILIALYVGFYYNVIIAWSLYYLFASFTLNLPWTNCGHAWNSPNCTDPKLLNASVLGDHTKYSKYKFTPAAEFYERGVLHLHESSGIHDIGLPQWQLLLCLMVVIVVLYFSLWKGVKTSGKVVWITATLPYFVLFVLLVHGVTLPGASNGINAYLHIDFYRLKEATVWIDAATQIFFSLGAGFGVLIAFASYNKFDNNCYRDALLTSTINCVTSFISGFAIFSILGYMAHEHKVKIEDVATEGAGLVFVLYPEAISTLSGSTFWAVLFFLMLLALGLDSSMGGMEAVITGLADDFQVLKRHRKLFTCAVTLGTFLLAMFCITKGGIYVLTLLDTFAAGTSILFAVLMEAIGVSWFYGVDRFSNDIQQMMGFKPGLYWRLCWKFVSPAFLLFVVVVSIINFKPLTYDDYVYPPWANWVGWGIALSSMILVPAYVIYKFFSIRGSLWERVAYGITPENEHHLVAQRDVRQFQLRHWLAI

Compound | BTX Binding at 10 μM [1] [%] | % Inhibition of the writhing reaction at 10 mg/kg intravenously [2] [%] | Diltiazem Binding at 10 μM [3] [%] | NA Uptake Inhibition at 1 μM [4] [%] | inhibition in vivo at 10 mg/kg [2] [%] | inhibition at 1 µM [4] [%] | Kd ([1]; radioligand, N=3, mean±SEM, read-out: KD value for this binding site) [µM] | Kd ([3]; radioligand, rat cerebral cortex, N=3, mean±SEM, read-out: KD value for this high-affinity binding site) [µM]
COc1cccc(C(C2CCCCC2(O)c2cccc(Cl)c2)N(C)C)c1.Cl (stereo not drawn) [Example 9] | 89 | 73 | 91 | 62 | – | – | – | –
COc1cccc(CC2(O)CCCCC2C(c2ccccc2)N(C)C)c1.Cl (stereo not drawn) [Example 13, 2-(dimethylaminophenylmethyl)-1-(3-methoxybenzyl)cyclohexanol, hydrochloride] | 94 | – | 88 | – | 100 | 95 | – | –
CN(C)C(c1ccccc1)C1CCCCC1(O)c1ccc(O)cc1.Cl (stereo not drawn) [Example 20, 4-[2-(dimethylaminophenylmethyl)-1-hydroxycyclohexyl]phenol, hydrochloride] | 68 | – | 69 | – | 96 | 68 | – | –
CN(C)C(c1ccccc1)C1CCCCC1(O)Cc1ccc(Cl)cc1.Cl (stereo not drawn) [Example 23, 1-(4-chlorobenzyl)-2-(dimethylaminophenylmethyl)-1-cyclohexanol, hydrochloride] | 94 | – | 100 | – | 100 | 99 | – | –
CN(C)C(c1ccccc1)C1CCCCC1(O)Cc1ccccc1F.Cl (stereo not drawn) [Example 24, 2-(dimethylaminophenylmethyl)-1-(2-fluorobenzyl)cyclohexanol, hydrochloride] | 92 | – | 93 | – | 97 | 98 | – | –
CN(C)C(c1ccccc1)C1CCCCC1(O)Cc1ccc(F)cc1.Cl (stereo not drawn) [Example 25, 2-(dimethylaminophenylmethyl)-1-(4-fluorobenzyl)cyclohexanol, hydrochloride] | 91 | – | 85 | – | 100 | 98 | – | –
COc1ccc(OC)c(C2(O)CCCCC2C(c2ccccc2)N(C)C)c1.Cl (stereo not drawn) [Example 26, 1-(2,5-dimethoxyphenyl)-2-(dimethylaminophenylmethyl)cyclohexanol, hydrochloride] | 85 | – | 87 | – | 94 | 5 | – | –
CN(C)C(c1ccccc1)C1CCCCC1(O)Cc1ccc(F)cc1Cl.Cl (stereo not drawn) [Example 27, 1-(2-chloro-4-fluorobenzyl)-2-(dimethylaminophenylmethyl)cyclohexanol, hydrochloride] | 97 | – | 96 | – | 82 | 89 | – | –
CN(C)C(c1ccccc1)C1CCCCC1(O)Cc1ccccc1Cl.Cl (stereo not drawn) [Example 30, 1-(2-chlorobenzyl)-2-(dimethylaminophenylmetlhyl)cyclohexanol, hydrochloride] | 96 | 85 | 98 | 98 | – | – | – | –
COc1cccc(C(C2CCCCC2(O)c2ccc3c(c2)OCO3)N(C)C)c1.Cl (stereo not drawn) [Example 31, 1-benzo[1,3]dioxol-5-yl-2-[dimethylamino-(3-methoxyphenyl)methyl]cyclohexanol, hydrochloride] | 85 | – | 90 | – | 76 | 43 | – | –
CN(C)C(c1ccccc1)C1CCCCC1(O)Cc1cccc(Cl)c1.Cl (stereo not drawn) [Example 32, 1-(3-chlorobenzyl)-2-(dimethylaminophenylmethyl)cyclohexanol, hydrochloride] | 94 | – | 98 | – | 100 | 100 | – | –
CN(C)C(c1ccccc1)C1CCCCC1(O)Cc1ccc(Cl)cc1Cl.Cl (stereo not drawn) [Example 33, 1-(2,4-dichlorobenzyl)-2-(dimethylaminophenylmethyl)cyclohexanol, hydrochloride] | 98 | – | 86 | – | 84 | 83 | – | –
CN(C)C(c1ccccc1)(c1cccc(Oc2ccccc2)c1)C1CCCCC1(O)Cc1ccccc1.Cl (stereo not drawn) [Example 34, 1-benzyl-2-[dimethylaminophenyl-(3-phenoxyphenyl)methyl]cyclohexanol, hydrochloride] | 100 | – | 100 | – | 99 | 96 | – | –
COc1cccc(C(c2ccccc2)(C2CCCCC2(O)Cc2ccccc2)N(C)C)c1.Cl (stereo not drawn) [Example 35, 1-benzyl-2-[dimethylaminophenyl-(3-methoxyphenyl)methyl]cyclohexanol, hydrochloride] | 92 | – | 87 | – | 81 | 100 | – | –
CN(C)C(c1ccccc1)C1CCCCC1(O)Cc1cccc(C(F)(F)F)c1.Cl (stereo not drawn) [Example 36, 2-(dimethylaminophenylmethyl)-1-(3-trifluoromethylbenzyl)cyclohexanol, hydrochloride] | 98 | – | – | – | 100 | 91 | – | –
COc1cccc(CC2(O)CCCCC2C(c2cccc(OC)c2)N(C)C)c1.Cl (stereo not drawn) [Example 37, 2-(dimethylamino-(3-methoxyphenyl)methyl]-1-(3-methoxybenzyl)cyclohexanol, hydrochloride] | 90 | – | 94 | – | 93 | 100 | – | –
CN(C)C(c1ccccc1Cl)C1CCCCC1(O)c1ccc2ccccc2c1.Cl (stereo not drawn) [Example 38, 2-[(2-chlorophenyl)dimethylaminomethyl]-1-naphthalene-2-ylcyclohexanol, hydrochloride] | 97 | – | 67 | – | 85 | 17 | – | –
[^3H]-batrachlotoxin A20 α-benzoate [reference compound] | – | – | – | – | – | – | 0.0246 ± 0.00156 | –
[^3H]-cis-(+)-diltiazem [reference compound] | – | – | – | – | – | – | – | 0.0041 ± 0.00075

Reference: patent US6410790B1, “3-amin3-arylpropan-1-ol compounds, their preparation and use” (priority 1999, dated 2002)
